Active and inactive are the calls of the source. The rule behind the calls is not given here.
Assays:
SARS-CoV-2 [1] = test: Antiviral activity against SARS-CoV-2 Omicron BA.4.6 infected in human A549-hACE2-TMPRSS2 cells assessed as fold reduction in viral replication pre-incubated with compound followed by viral infection measured after 72 hrs by ELISA assay relative to SARS-CoV-2 WA1; assay type: functional, Severe acute respiratory syndrome coronavirus 2
SARS-CoV-2 [2] = test: Antiviral activity against SARS-CoV-2 Omicron BA.2.75 infected in human A549-hACE2-TMPRSS2 cells assessed as fold reduction in viral replication pre-incubated with compound followed by viral infection measured after 72 hrs by ELISA assay relative to SARS-CoV-2 WA1; assay type: functional, Severe acute respiratory syndrome coronavirus 2
SARS-CoV-2 [3] = test: Antiviral activity against SARS-CoV-2 Delta (B.1.617.2) infected in human A549-hACE2-TMPRSS2 cells assessed as fold reduction in viral replication pre-incubated with compound followed by viral infection measured after 48 hrs by ELISA assay relative to SARS-CoV-2 WA1; assay type: functional, Severe acute respiratory syndrome coronavirus 2
SARS-CoV-2 [4] = test: Antiviral activity against SARS-CoV-2 Omicron BA.1 infected in human A549-hACE2-TMPRSS2 cells assessed as fold reduction in viral replication pre-incubated with compound followed by viral infection measured after 72 hrs by ELISA assay relative to SARS-CoV-2 WA1; assay type: functional, Severe acute respiratory syndrome coronavirus 2
SARS-CoV-2 [5] = test: Antiviral activity against SARS-CoV-2 Omicron BF.5 infected in human A549-hACE2-TMPRSS2 cells assessed as fold reduction in viral replication pre-incubated with compound followed by viral infection measured after 72 hrs by ELISA assay relative to SARS-CoV-2 WA1; assay type: functional, Severe acute respiratory syndrome coronavirus 2
SARS-CoV-2 [6] = test: Antiviral activity against SARS-CoV-2 Omicron BA.2 infected in human A549-hACE2-TMPRSS2 cells assessed as fold reduction in viral replication pre-incubated with compound followed by viral infection measured after 72 hrs by ELISA assay relative to SARS-CoV-2 WA1; assay type: functional, Severe acute respiratory syndrome coronavirus 2
SARS-CoV-2 [7] = test: Antiviral activity against SARS-CoV-2 Omicron XBB infected in human A549-hACE2-TMPRSS2 cells assessed as fold reduction in viral replication pre-incubated with compound followed by viral infection measured after 72 hrs by ELISA assay relative to SARS-CoV-2 WA1; assay type: functional, Severe acute respiratory syndrome coronavirus 2
SARS-CoV-2 [8] = test: Antiviral activity against SARS-CoV-2 Omicron BA.5 infected in human A549-hACE2-TMPRSS2 cells assessed as fold reduction in viral replication pre-incubated with compound followed by viral infection measured after 72 hrs by ELISA assay relative to SARS-CoV-2 WA1; assay type: functional, Severe acute respiratory syndrome coronavirus 2
[9] = (§1) Cytotoxicity against human PC-3 cells assessed as reduction in cell growth measured after 5 days by CellTiter-Glo assay; assay type: toxicity, cell-based; conditions: PC-3 cells, time 5 day
[10] = Thermodynamic aqueous solubility at pH 2 measured at 72 hrs by UPLC analysis; assay type: physicochemical; conditions: aqueous solution, read-out: Therm_solubility
[11] = Thermodynamic aqueous solubility at pH 7 measured at 24 hrs by UPLC analysis; assay type: physicochemical; conditions: aqueous solution, read-out: Therm_solubility
[12] = Drug metabolism in human NHBE-T cells assessed as fold increase in Nucleotide triphosphate metabolite formation at 10 uM measured after 48 hrs by LC-MS analysis; assay type: ADME, cell-based
[13] = Lipophilicity, logD of compound; assay type: physicochemical; conditions: octanol/water
in vivo = conditions: dog, po, 5 mg/kg
PC-3 [14] = test: Inhibition of mitochondrial protein synthesis in human PC-3 cells at 100 uM incubated for 5 days; assay type: functional, cell-based; conditions: time 5.0 day
[15] = molecular target: T1, Adenosine deaminase (Homo sapiens) (UniProt P00813); test: Inhibition of human recombinant ADA1-mediated drug metabolism at 100 uM incubated for 58 mins by absorbance based analysis
T1 sequence (whole entry): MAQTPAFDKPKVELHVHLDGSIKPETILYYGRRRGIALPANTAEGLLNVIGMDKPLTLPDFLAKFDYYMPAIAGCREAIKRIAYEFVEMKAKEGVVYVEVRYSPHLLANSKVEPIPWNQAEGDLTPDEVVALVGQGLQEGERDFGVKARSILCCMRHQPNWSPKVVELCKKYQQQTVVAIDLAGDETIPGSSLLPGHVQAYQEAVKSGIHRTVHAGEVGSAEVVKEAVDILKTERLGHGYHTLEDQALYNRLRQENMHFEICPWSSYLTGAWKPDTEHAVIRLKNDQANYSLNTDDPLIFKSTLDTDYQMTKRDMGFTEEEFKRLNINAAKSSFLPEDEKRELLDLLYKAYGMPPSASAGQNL

[16] = Drug metabolism in human A549-ACE2 cells assessed as Nucleotide triphosphate metabolite formation at 10 uM measured after 48 hrs by LC-MS analysis; assay type: ADME, cell-based; conditions: a549-ace2, 48 h
[17] = AUC(0 to 24 hrs) in African green monkey at 86.5 mg/kg, po measured upto 24 hrs by LC-MS/MS analysis; assay type: ADME, organism-based; set-up: dose 86.5 mg/kg, time < 24 hrs, route po; conditions: chlorocebus sabaeus, in vivo
[18] = Prodrug conversion in African green monkey assessed as Nucleotide triphosphate metabolite formation in lung at 60 mg/kg, po measured upto 24 hrs by LC-MS/MS analysis; assay type: ADME, organism-based; conditions: chlorocebus aethiops, in vivo
[19] = Cmax in cynomolgus monkey assessed as prodrug conversion by measuring (2R,3R,4S,5R)-2-(4-aminopyrrolo[2,1-f][1,2,4]triazin-7-yl)-3,4-dihydroxy-5-(hydroxymethyl)tetrahydrofuran-2-carbonitrile at 11.7 mg/kg, po measured upto 24 hrs by LC-MS/MS analysis; assay type: ADME, organism-based, Macaca fascicularis; set-up: time < 24 hrs, dose 11.7 mg/kg, route po; conditions: in vivo
[20] = Cmax in dog assessed as prodrug conversion by measuring (2R,3R,4S,5R)-2-(4-aminopyrrolo[2,1-f][1,2,4]triazin-7-yl)-3,4-dihydroxy-5-(hydroxymethyl)tetrahydrofuran-2-carbonitrile at […], po measured upto 24 hrs by LC-MS/MS analysis; assay type: ADME, organism-based, Canis lupus familiaris; conditions: in vivo
[21] = Stability of compound in cynomolgus monkey gastrointestinal S9 fraction assessed as half life at pH 7.4 measured upto 120 mins by LC-MS/MS analysis; assay type: ADME, subcellular, Macaca fascicularis, Gastrointestinal tract
CES1b = test: Stability of compound assessed as human recombinant CES1b-mediated compound hydrolysis by measuring half life at pH 7.4 using oseltamivir as substrate measured upto 120 mins by LC-MS/MS analysis; assay type: ADME; conditions: pH 7.4, probe oseltamivir
[22] = Half life in cynomolgus monkey assessed as prodrug conversion by measuring (2R,3R,4S,5R)-2-(4-aminopyrrolo[2,1-f][1,2,4]triazin-7-yl)-3,4-dihydroxy-5-(hydroxymethyl)tetrahydrofuran-2-carbonitrile at 11.7 mg/kg, po measured upto 24 hrs by LC-MS/MS analysis; assay type: ADME, organism-based, Macaca fascicularis; conditions: in vivo
[23] = Oral bioavailability in dog assessed as prodrug conversion by measuring (2R,3R,4S,5R)-2-(4-aminopyrrolo[2,1-f][1,2,4]triazin-7-yl)-3,4-dihydroxy-5-(hydroxymethyl)tetrahydrofuran-2-carbonitrile at […] administered in solid form measured upto 24 hrs by LC-MS/MS analysis; assay type: ADME, organism-based, Canis lupus familiaris; conditions: in vivo
[24] = Cmax in African green monkey infected with SARS-CoV-2 assessed as prodrug conversion by measuring (2R,3R,4S,5R)-2-(4-aminopyrrolo[2,1-f][1,2,4]triazin-7-yl)-3,4-dihydroxy-5-(hydroxymethyl)tetrahydrofuran-2-carbonitrile at 60 mg/kg, po qd measured after 6 days by LC-MS/MS analysis; assay type: ADME, organism-based, Severe acute respiratory syndrome coronavirus 2; set-up: dose 60 mg/kg, time 6 day, route po; conditions: in vivo
PC-3 [25] = test: as §1; assay type: toxicity, cell-based; conditions: pc-3, 120 h, time 5 day

SMILES	fold change (FC) (SARS-CoV-2 [1])	fold change (FC) (SARS-CoV-2 [2])	fold change (FC) (SARS-CoV-2 [3])	fold change (FC) (SARS-CoV-2 [4])	fold change (FC) (SARS-CoV-2 [5])	fold change (FC) (SARS-CoV-2 [6])	fold change (FC) (SARS-CoV-2 [7])	fold change (FC) (SARS-CoV-2 [8])	solubility thermodynamic at 72 h [10]	solubility thermodynamic at 24 h [11]	Drug metabolism [12]	inhibition (PC-3 [14])	inhibition [15]	Drug metabolism [16]	other results
CCC(CC)COC(=O)[C@H](C)N[P@](=O)(OC[C@H]1O[C@@](C#N)(c2ccc3c(N)ncnn23)[C@H](O)[C@@H]1O)Oc1ccccc1	0.64	0.3	0.59	0.45	0.94	0.23	1.07	0.66							CC50 at 120 h [9]: 1400 nM
N#C[C@@]1(c2ccc3c(N)ncnn23)O[C@H](CO)[C@@H](O)[C@H]1O [GS-441524]									≤ 1000 µg/mL	≤ 70 µg/mL	Metabolite_Detected	inactive	Active	Metabolite_Detected	fold change (FC) [12]: > 3; logD [13]: < 0.3; bioavailability at 24 h (in vivo): 89%
CC(C)C(=O)OC[C@H]1O[C@@](C#N)(c2ccc3c(N)ncnn23)[C@H](O)[C@@H]1O [OBELDESIVIR]	0.62	0.35	0.72	0.32	0.8	0.37	1.1	0.83	≥ 40000 µg/mL	≥ 1000 µg/mL	Metabolite_Detected	inactive	Active	Metabolite_Detected	AUC [17]: 0.68 µM·h; logD ([13]; read-out: logD): < 0.9; Drug metabolism [18]: 0.31 nmol/g; Cmax [19]: 7.57 µM; Cmax [20]: 57.8 µM; half-life [21]: < 2 min; half-life (CES1b): 4 min; t1/2 [22]: 157 min; F [23]: 67%; Cmax [24]: 21 µM; CC50 (PC-3 [25]): > 100000 nM

Source: ChEMBL document CHEMBL5321279 (J Med Chem, 2023)
